Read-outs that look alike come from different tables or passages of the source.
Experiments:
[1] = In vivo oral bioavailability test, plasma metal quantified by ICP-OES / ICP-MS; settings: BALB/c mice, 300 mg/Kg oral gavage
Description: Female 4–8-week old BALB/c mice weighing 15–20 g were purchased from the central animal facilities of Campinas State University (UNICAMP, Campinas, SP, Brazil). The mice were maintained in polycarbonate cages at 23 ± 2 °C, 56% ± 2% humidity at a 12 h light/dark cycle under specific pathogen-free conditions (in a positive-pressure cabinet), and the animals were provided with food and water ad libitum. […] The animals (n = 2 animals/complex) received a dose of 300 mg/Kg body weight via oral gavage. At 20 min, 1 h, 2 h, and 4 h after drug administration, blood was drawn from two animals via the retro-orbital veins, draining the submandibular vein and the face of the mice to the point at which the origins of the jugular vein join so that drops of blood exude from the point of penetration. The plasma was separated and stored at −70 °C for quantification.
The metal ion (Zn) concentration was quantified via ICP-OES using a Thermo Scientific Model 6300 system (Thermo Scientific®, San Diego, CA, USA). Samples (50 µL) were diluted 1:100 with a solution containing 0.01% (v/v) Triton X-100 and 0.5% (v/v) nitric acid. During the experiment, the recovery validation test was performed, and this test produced a result of 94%–104% recovery.
For digestion, 50 µL of plasma sample and 5950 µL of double-distilled 20% (v/v) nitric acid were used. The samples were digested in a microwave (Berghof speedwave D 72800, Goshen, NY, USA), reaching a temperature of 170 °C. During the experiment, the recovery validation test was performed, and this test produced a result of 95%–105% recovery.

BALB/c mice [2] = experiment: In vivo acute toxicity assay, single oral dose; settings: single dose 1000 mg/kg body weight via gavage, 14 days, n = 6
Description: Female 16–20-week old BALB/c mice weighing 24–26 g were used after utilizing these animals for the bioavailability experiments. […] The mice were maintained in polycarbonate cages at 23 ± 2 °C, 56% ± 2% humidity at a 12-h light/dark cycle under specific-pathogen-free conditions (in a positive-pressure cabinet), and the animals were provided with food and water ad libitum [36].
The safety profile of the complexes to BALB/c mice was evaluated via acute toxicity assays according to protocols established by the OECD using the classical method to measure the acute toxicity (LD50) of a single oral dose (administered via gavage) of the complexes [26].
Each complex was suspended in a sunflower oil vehicle, and the vehicle was used as a control (control group). The complexes were administered as a single dose at 1000 mg/kg body weight via gavage (n = 6 animals/complex). […] The animals were monitored for 14 days, and behavioral parameters (Hippocratic screening) were evaluated.
At the end of the experiment, the animals were weighed, and blood was collected via the submandibular vein. Subsequently, the animals were euthanized in CO2 chambers, and their organs (heart, lungs, right and left kidneys, spleen and liver) were surgically removed, weighed and macroscopically analyzed. […]

[3] = system: MDA-MB-231 cells (breast adenocarcinoma); experiment: Cytotoxic analysis (IC50) of adherent cell lines, resazurin: MDA-MB-231; format: cell-based; settings: for SI (selectivity index), MDA-MB-231: IC50 for MRC-5 cells / IC50 for MDA-MB-231 cells; for IC50: MDA-MB-231 tumor cells, 24 h incubation, resazurin, read-out: IC50 ± SD, MDA-MB-231
Description: (§1) All adherent cell lines, including healthy lung fibroblast (MRC-5), hepatocellular carcinoma (HepG-2), cervix adenocarcinoma (HeLa), breast adenocarcinoma (MDA-MB-231), prostate carcinoma (DU 145) and suspended chronic myelogenous leukemia (K-562) cells, were cultured in a humidified atmosphere containing 5% CO2 at 37 °C. The cultures were maintained in Dulbecco's Modified Eagle Medium (DMEM) or Roswell Park Memorial Institute (RPMI) 1640 medium (Vitrocell®, Campinas, SP, Brazil) supplemented with 10% fetal bovine serum (FBS), 50 mg/L gentamicin sulfate, and 2 mg/L amphotericin B.
(§2) In these experiments, cells were collected in a solution of trypsin/ethylenediaminetetraacetic acid (EDTA) (Vitrocell®) and centrifuged (252× g for 5 min). The number of cells was counted using a Neubauer chamber (Celeromics, Valencia, Spain) after staining non-viable cells with 0.4% trypan blue solution (Sigma-Aldrich®) via the cell exclusion assay. Then, the cell concentration was adjusted to 7.5 × 10^4 cells/mL in DMEM for tumor cells and MRC-5 cells. Next, a 200 μL suspension was deposited into each well of a 96-well microplate to a cell density of 1.5 × 10^4 cells/well. The cells were incubated at 37 °C in an atmosphere of 5% CO2 for 24 h to allow the cells to attach to the plate. The coordination compounds were solubilized in DMSO to an initial concentration of 10,000 µg/mL. Test solutions of the complexes were prepared to obtain concentrations from 500 to 1.95 μg/mL. The diluted solutions were added to the cells after changing the medium to remove any non-adherent cells, and the cultures were incubated for an additional 24 h. The cytotoxicity of the complexes was determined after incubating the cells in 30 μL of resazurin for approximately 2 h. The measurement was performed using a Synergy H1 microplate reader (BioTek®, Winooski, VT, USA) with excitation and emission filters at wavelengths of 530 and 590 nm, respectively. The assays were performed in three independent experiments.
(§3) The SI of the complexes was calculated as the ratio of the IC50 for healthy MRC-5 cells to the IC50 for tumor cells. […] Substances with SI values >3 are considered promising.

[4] = system: DU 145 cells (prostate carcinoma); experiment: Cytotoxic analysis (IC50) of adherent cell lines, resazurin: DU 145; format: cell-based; settings: for SI (selectivity index), DU 145: IC50 for MRC-5 cells / IC50 for DU 145 cells; for IC50: DU 145 tumor cells, 24 h incubation, resazurin, read-out: IC50 ± SD, DU 145
Description: as §1, §2, §3

Artemia salina L. [5] = experiment: Artemia salina L. toxicity assay; format: in vivo; settings: ratio of LC50 values to cisplatin
Description: To determine toxicity of the Zn^II complexes to brine shrimp, 25 mg of egg (Natal, RN, Brazil) was incubated in a beaker (2000 mL) containing artificial salt water at a temperature ranging from 20 to 30 °C. The artificial salt water consisted of 23 g NaCl, 11 g MgCl2·6H2O, 4 g Na2SO4, 1.3 g CaCl2·H2O, and 0.7 g KCl in 1000 mL distilled water. The pH was adjusted to 9.0 using 5N NaOH to avoid risk of death to the Artemia larvae (nauplii) due to a low pH during incubation.
After 24 hours, 0.6 g of Saccharomyces cerevisiae was added to the beaker per liter of salt water to feed the nauplii; after the eggs were incubated for 48 h, the nauplii were extracted for the experiments.
A 120 µL suspension of 10-15 nauplii was added to each well of a 96-well microplate, including the control wells. The compounds were solubilized in DMSO at 15,000 µg/mL and serially diluted in a separate 96-well microplate. The tested concentrations ranged from 1500 to 5.85 µg/mL. After incubation for 24 h, the plates were examined under a Lupa binocular microscope (X3.0), and the numbers of live nauplii in each well were counted to determine the LC50 [21]. The assays were performed in three independent experiments.

[6] = Solubility in solvents and vehicle (qualitative); format: physicochemical
[7] = system: HepG2 cells (hepatocellular carcinoma); experiment: Cytotoxic analysis (IC50) of adherent cell lines, resazurin: HepG2; format: cell-based; settings: for SI (selectivity index), HepG2: IC50 for MRC-5 cells / IC50 for HepG2 cells; for IC50: HepG2 tumor cells, 24 h incubation, resazurin, read-out: IC50 ± SD, HepG2
Description: as §1, §2, §3

[8] = system: K-562 cells (chronic myelogenous leukemia); experiment: Cytotoxic analysis (IC50) of suspended cells, resazurin: K-562; format: cell-based; settings: for IC50: K-562 suspended tumor cells, 24 h incubation, resazurin, read-out: IC50 ± SD, K-562; for SI (selectivity index), K-562: IC50 for MRC-5 cells / IC50 for K-562 cells
Description: as §1
In these experiments, cells were centrifuged (252× g for 5 min), and the number of cells was counted using a Neubauer chamber after staining non-viable cells with 0.4% trypan blue solution (Sigma-Aldrich®) via the cell exclusion assay. Then, the cell concentration was adjusted to 2 × 10^5 cells/mL in RPMI 1640 medium. Next, 100 μL of the suspension was deposited into each well of a 96-well microplate to a final cell density of […] [35]. The complexes were dissolved in DMSO to an initial concentration of 10,000 μg/mL. Test solutions of the complexes were prepared to obtain concentrations from 500 to 1.95 μg/mL. The diluted solutions were added to the cells, and the cultures were incubated for 24 h. The cytotoxicity of the complexes was determined after incubating the cells in 30 μL of resazurin for approximately 5 h. The measurement was performed using a Synergy H1 microplate reader (BioTek®, Winooski, VT, USA) with excitation and emission filters at wavelengths of 530 and 590 nm, respectively. The assays were performed in three independent experiments.
as §3

[9] = system: HeLa cells (cervix adenocarcinoma); experiment: Cytotoxic analysis (IC50) of adherent cell lines, resazurin: HeLa; format: cell-based; settings: for IC50: HeLa tumor cells, 24 h incubation, resazurin, read-out: IC50 ± SD, HeLa; for SI (selectivity index), HeLa: IC50 for MRC-5 cells / IC50 for HeLa cells
Description: as §1, §2, §3

BALB/c mice [10] = experiment: Quantification of serum AST and ALT enzymatic activity levels; format: in vivo; settings: ANOVA and Dunnett's test
Description: To analyze whether there were any biochemical changes in the liver of the animals, we quantified the serum AST and ALT enzymatic activity levels in mice after administration of the complexes via gavage before sacrificing, as described above. A total of 500 µL of blood was collected via the submandibular vein. The blood samples were placed in collection tubes, centrifuged at 1097.6× g for 15 min to separate the serum, and stored at −70 °C. The samples were analyzed on the day of collection.
Enzymatic activity measurements were performed using biochemical diagnostic kits from Labtest S.A. (Labtest S.A., Lagoa Santa, MG, Brazil).
Statistical analysis was performed using GraphPad Prism Version 1.5 software via ANOVA and Dunnett’s test, and p < 0.05 was established as the significance level.

[11] = system: MRC-5 cells (healthy lung fibroblast); experiment: Cytotoxic analysis (IC50) of adherent cell lines, resazurin: MRC-5; format: cell-based; settings: 24 h incubation, read-out: IC50 ± SD, MRC-5
Description: as §1, §2

Artemia salina L. [12] = system: Artemia salina L.; set-up: method as in Freitas et al. (2011) [25]; settings: ref Freitas et al. (2011) [25]; read-out: LC50 against Artemia salina L.; cited from earlier work
[13] = Homo sapiens, MRC5, normal MRC-5 cells

Row | Molecule | SI (selectivity index), MDA-MB-231 [3] | SI (selectivity index), DU 145 [4] | SI (selectivity index), HepG2 [7] | IC50 [8] [µM] | IC50 [3] [µM] | IC50 [4] [µM] | IC50 [9] [µM] | IC50 [7] [µM] | IC50 ([11]; normal MRC-5 cells) [µM] | IC50 ([8]; Homo sapiens, K562) [µM] | SI (selectivity index), K-562 [8] | IC50 ([3]; Homo sapiens) [µM] | IC50 ([4]; Homo sapiens) [µM] | IC50 ([9]; Homo sapiens) [µM] | SI (selectivity index), HeLa [9] | IC50 ([7]; Homo sapiens) [µM] | IC50 [11, 13] [µM] | further results
1 | CC(=NN=C([S-])Nc1ccccc1)c1ccccn1.CC(=NN=C([S-])Nc1ccccc1)c1ccccn1.[Zn+2] [Complex 2, [Zn(atc-Ph)2]] | 2.2 | 0.3 | 3.6 |  |  |  |  |  |  |  |  |  |  |  |  |  |  | maximum plasma concentration (Cmax) [1]: 1191.95 ng/mL; plasma concentration at 20 min ([1]; 20 min, Zn by ICP-OES, relative to control sample): 727.83 ng/mL; plasma concentration at 1 h ([1]; 1 h, Zn by ICP-OES, relative to control sample): 1023.55 ng/mL; plasma concentration at 2 h ([1]; 2 h, Zn by ICP-OES, relative to control sample): 1191.95 ng/mL; plasma concentration at 4 h ([1]; 4 h, Zn by ICP-OES, relative to control sample): 624.70 ng/mL; mortality (BALB/c mice [2]): no mortality; fold lower toxicity in Artemia salina L. relative to cisplatin (Artemia salina L. [5]): 5.7 fold; solubility in organic solvents [6]: reasonably soluble only in dimethyl sulfoxide (DMSO)
2 | N.N.[Cl][Pt][Cl] [Cisplatin, reference compound] |  |  |  | 75.4 ± 6 | 143 ± 3.3 | 56.5 ± 6.8 | 85 ± 10.1 | 60.3 ± 15.1 | 46.2 ± 4.9 |  |  |  |  |  |  |  |  | serum AST and ALT enzymatic activity levels versus control group (BALB/c mice [10]): no significant difference
3 | C/C(=N\NC(=S)Nc1ccccc1)c1ccccn1 [Hatc-Ph] | 0.3 | 0.5 | 0.2 |  |  |  |  |  |  | 11.1 ± 0.6 | 0.7 | 24.3 ± 5 | 15.1 ± 2.1 | 25 ± 0.2 | 0.3 | 36.3 ± 1.5 | 7.4 | 
4 | perchlorate compound of bis(isoniazid) Zn^II hexahydrate |  |  |  |  |  |  |  |  |  |  |  |  |  |  |  |  |  | LC50 (Artemia salina L. [12]): 268 µM
5 | CCNC(=S)N/N=C(\C)c1ccccn1 [Hatc-Et] |  |  |  |  |  |  |  |  |  | 420.3 ± 3.7 |  | 904 ± 65.3 | 532 ± 12.6 | 746 ± 23.2 |  | 553 ± 45 | 9 | 
6 | O.O.O.O.O.O.[Cl][Zn][Cl] [ZnCl2·6H2O] | 0.5 | 0.6 | 0.3 | 1090 ± 73.8 | 475 ± 64.3 | 383 ± 7.8 | 864 ± 14 | 698 ± 10.9 | 240 ± 16.8 |  | 0.2 |  |  |  | 0.3 |  |  | 

— publication PMC4881598, “Novel Zinc(II) Complexes [Zn(atc-Et)2] and [Zn(atc-Ph)2]: In Vitro and in Vivo Antiproliferative Studies” (International Journal of Molecular Sciences, 2016)
